Laboratory results reported in the supplement of paper PMC10307832.

How the values were obtained:
Test in all cases: relative viability (nuclei count vs DMSO), 5 days (fraction); higher = more cells survive
Selisistat = compound: C1CC(C2=C(C1)C3=C(N2)C=CC(=C3)Cl)C(=O)N [Selisistat]
In short: (§1)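 Viability was read as treated-well nuclei divided by vehicle-well nuclei, using the median across plates. Lung cancer cell lines in 1536-well plates were kept overnight at 37 °C, pinned with five √10-spaced library-drug doses, and after 5 days were Hoechst-stained, imaged at 4× and counted in MetaXpress. Plates passed only with control CV below 25% and at least one doubling.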

Serdemetan = compound: c1ccc2c(CCNc3ccc(Nc4ccncc4)cc3)c[nH]c2c1 [Serdemetan]
In short: as §1

Selisistat + Alpelisib = compound: C1CC(C2=C(C1)C3=C(N2)C=CC(=C3)Cl)C(=O)N [Selisistat] + Cc1nc(NC(=O)N2CCC[C@H]2C(N)=O)sc1-c1ccnc(C(C)(C)C(F)(F)F)c1 [Alpelisib] (partner 2 µM)
In short: (§2)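 A single step with final 0.05% Triton X-100, 1% formaldehyde and 1 ug/ml Hoechst fixed the cells and stained nuclei 5 days after treatment. Lung cancer cell lines in 1536-well plates had been treated by pin tool the day after seeding with one drug alone or a fixed anchor-drug dose plus five library-drug doses (not always all listed) in √10 steps, and nuclei were counted on 4× images. Relative viability is the ratio of nuclei in treated wells to nuclei in vehicle wells, taken as the median of duplicate plates.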

Serdemetan + Pemetrexed = compound: c1ccc2c(CCNc3ccc(Nc4ccncc4)cc3)c[nH]c2c1 [Serdemetan] + Nc1nc2[nH]cc(CCc3ccc(C(=O)N[C@@H](CCC(=O)O)C(=O)O)cc3)c2c(=O)[nH]1 [Pemetrexed] (partner 0.2 µM)
In short: as §2

## COR-L23
Selisistat; 0.4 µM
  relative viability: 1.05
Selisistat; 1.265 µM
  relative viability: 1.06
Selisistat; 4 µM
  relative viability: 1.08
Selisistat; 12.65 µM
  relative viability: 0.908
Selisistat; 40 µM
  relative viability: 1.01
Serdemetan; 0.04 µM
  relative viability: 0.951
Serdemetan; 0.1265 µM
  relative viability: 0.988
Serdemetan; 0.4 µM
  relative viability: 1.06
Serdemetan; 1.265 µM
  relative viability: 0.823
Serdemetan; 4 µM
  relative viability: 0.874
Selisistat + Alpelisib; first compound 0.4 µM
  relative viability: 0.921
Selisistat + Alpelisib; first compound 1.265 µM
  relative viability: 0.872
Selisistat + Alpelisib; first compound 4 µM
  relative viability: 0.793
Selisistat + Alpelisib; first compound 12.65 µM
  relative viability: 0.767
Selisistat + Alpelisib; first compound 40 µM
  relative viability: 0.766
Serdemetan + Pemetrexed; first compound 0.04 µM
  relative viability: 0.206
Serdemetan + Pemetrexed; first compound 0.1265 µM
  relative viability: 0.208
Serdemetan + Pemetrexed; first compound 0.4 µM
  relative viability: 0.213
Serdemetan + Pemetrexed; first compound 1.265 µM
  relative viability: 0.192
Serdemetan + Pemetrexed; first compound 4 µM
  relative viability: 0.186

## COR-L 105
Selisistat; 0.4 µM
  relative viability: 0.904
Selisistat; 1.265 µM
  relative viability: 0.895
Selisistat; 4 µM
  relative viability: 0.675
Selisistat; 12.65 µM
  relative viability: 0.855
Selisistat; 40 µM
  relative viability: 0.877
Serdemetan; 0.04 µM
  relative viability: 0.971
Serdemetan; 0.1265 µM
  relative viability: 0.875
Serdemetan; 0.4 µM
  relative viability: 0.734
Serdemetan; 1.265 µM
  relative viability: 0.815
Serdemetan; 4 µM
  relative viability: 0.89
Selisistat + Alpelisib; first compound 0.4 µM
  relative viability: 0.888
Selisistat + Alpelisib; first compound 1.265 µM
  relative viability: 0.929
Selisistat + Alpelisib; first compound 4 µM
  relative viability: 1.03
Selisistat + Alpelisib; first compound 12.65 µM
  relative viability: 0.964
Selisistat + Alpelisib; first compound 40 µM
  relative viability: 0.846
Serdemetan + Pemetrexed; first compound 0.04 µM
  relative viability: 1.06
Serdemetan + Pemetrexed; first compound 0.1265 µM
  relative viability: 0.991
Serdemetan + Pemetrexed; first compound 0.4 µM
  relative viability: 0.948
Serdemetan + Pemetrexed; first compound 1.265 µM
  relative viability: 1.14
Serdemetan + Pemetrexed; first compound 4 µM
  relative viability: 0.967

## EKVX
Selisistat; 0.4 µM
  relative viability: 1.05
Selisistat; 1.265 µM
  relative viability: 0.993
Selisistat; 4 µM
  relative viability: 0.788
Selisistat; 12.65 µM
  relative viability: 0.902
Selisistat; 40 µM
  relative viability: 0.92
Serdemetan; 0.04 µM
  relative viability: 0.987
Serdemetan; 0.1265 µM
  relative viability: 0.987
Serdemetan; 0.4 µM
  relative viability: 0.647
Serdemetan; 1.265 µM
  relative viability: 0.627
Serdemetan; 4 µM
  relative viability: 0.891
Selisistat + Alpelisib; first compound 0.4 µM
  relative viability: 0.949
Selisistat + Alpelisib; first compound 1.265 µM
  relative viability: 0.855
Selisistat + Alpelisib; first compound 4 µM
  relative viability: 0.723
Selisistat + Alpelisib; first compound 12.65 µM
  relative viability: 0.853
Selisistat + Alpelisib; first compound 40 µM
  relative viability: 0.878
Serdemetan + Pemetrexed; first compound 0.04 µM
  relative viability: 0.335
Serdemetan + Pemetrexed; first compound 0.1265 µM
  relative viability: 0.401
Serdemetan + Pemetrexed; first compound 4 µM
  relative viability: 0.376

## EMC-BAC-2
Selisistat; 0.4 µM
  relative viability: 0.978
Selisistat; 1.265 µM
  relative viability: 0.996
Selisistat; 4 µM
  relative viability: 0.595
Selisistat; 12.65 µM
  relative viability: 0.688
Selisistat; 40 µM
  relative viability: 0.561
Serdemetan; 0.04 µM
  relative viability: 0.962
Serdemetan; 0.1265 µM
  relative viability: 1.02
Serdemetan; 0.4 µM
  relative viability: 0.971
Serdemetan; 1.265 µM
  relative viability: 0.849
Serdemetan; 4 µM
  relative viability: 0.967
Selisistat + Alpelisib; first compound 0.4 µM
  relative viability: 0.693
Selisistat + Alpelisib; first compound 1.265 µM
  relative viability: 0.708
Selisistat + Alpelisib; first compound 4 µM
  relative viability: 0.674
Selisistat + Alpelisib; first compound 12.65 µM
  relative viability: 0.697
Selisistat + Alpelisib; first compound 40 µM
  relative viability: 0.777
Serdemetan + Pemetrexed; first compound 0.04 µM
  relative viability: 0.457
Serdemetan + Pemetrexed; first compound 0.1265 µM
  relative viability: 0.446
Serdemetan + Pemetrexed; first compound 0.4 µM
  relative viability: 0.437
Serdemetan + Pemetrexed; first compound 1.265 µM
  relative viability: 0.346
Serdemetan + Pemetrexed; first compound 4 µM
  relative viability: 0.4

## EPLC-272H
Selisistat; 0.4 µM
  relative viability: 0.966
Selisistat; 1.265 µM
  relative viability: 1.03
Selisistat; 12.65 µM
  relative viability: 0.931
Selisistat; 40 µM
  relative viability: 1.04
Serdemetan; 0.04 µM
  relative viability: 1.17
Serdemetan; 0.1265 µM
  relative viability: 1.09
Serdemetan; 0.4 µM
  relative viability: 0.897
Serdemetan; 1.265 µM
  relative viability: 0.833
Serdemetan; 4 µM
  relative viability: 0.912
Selisistat + Alpelisib; first compound 0.4 µM
  relative viability: 1.02
Selisistat + Alpelisib; first compound 1.265 µM
  relative viability: 0.853
Selisistat + Alpelisib; first compound 12.65 µM
  relative viability: 0.977
Selisistat + Alpelisib; first compound 40 µM
  relative viability: 0.885
Serdemetan + Pemetrexed; first compound 0.04 µM
  relative viability: 0.316
Serdemetan + Pemetrexed; first compound 0.1265 µM
  relative viability: 0.367
Serdemetan + Pemetrexed; first compound 0.4 µM
  relative viability: 0.342
Serdemetan + Pemetrexed; first compound 1.265 µM
  relative viability: 0.269
Serdemetan + Pemetrexed; first compound 4 µM
  relative viability: 0.374

## H3255
Selisistat; 0.4 µM
  relative viability: 0.984
Selisistat; 1.265 µM
  relative viability: 0.943
Selisistat; 4 µM
  relative viability: 0.978
Selisistat; 12.65 µM
  relative viability: 0.948
Selisistat; 40 µM
  relative viability: 1.03
Serdemetan; 0.04 µM
  relative viability: 0.968
Serdemetan; 0.1265 µM
  relative viability: 0.944
Serdemetan; 0.4 µM
  relative viability: 0.987
Serdemetan; 1.265 µM
  relative viability: 0.787
Serdemetan; 4 µM
  relative viability: 0.896
Selisistat + Alpelisib; first compound 0.4 µM
  relative viability: 0.724
Selisistat + Alpelisib; first compound 1.265 µM
  relative viability: 0.662
Selisistat + Alpelisib; first compound 4 µM
  relative viability: 0.725
Selisistat + Alpelisib; first compound 12.65 µM
  relative viability: 0.62
Selisistat + Alpelisib; first compound 40 µM
  relative viability: 0.786
Serdemetan + Pemetrexed; first compound 0.04 µM
  relative viability: 0.594
Serdemetan + Pemetrexed; first compound 0.1265 µM
  relative viability: 0.462
Serdemetan + Pemetrexed; first compound 0.4 µM
  relative viability: 0.541
Serdemetan + Pemetrexed; first compound 1.265 µM
  relative viability: 0.539
Serdemetan + Pemetrexed; first compound 4 µM
  relative viability: 0.572

## HARA
Selisistat; 0.4 µM
  relative viability: 0.955
Selisistat; 1.265 µM
  relative viability: 0.938
Selisistat; 4 µM
  relative viability: 0.749
Selisistat; 12.65 µM
  relative viability: 0.964
Selisistat; 40 µM
  relative viability: 1.07
Serdemetan; 0.04 µM
  relative viability: 0.938
Serdemetan; 0.1265 µM
  relative viability: 1.01
Serdemetan; 0.4 µM
  relative viability: 0.937
Serdemetan; 1.265 µM
  relative viability: 0.757
Serdemetan; 4 µM
  relative viability: 0.877
Selisistat + Alpelisib; first compound 0.4 µM
  relative viability: 0.881
Selisistat + Alpelisib; first compound 1.265 µM
  relative viability: 0.868
Selisistat + Alpelisib; first compound 4 µM
  relative viability: 0.793
Selisistat + Alpelisib; first compound 12.65 µM
  relative viability: 0.846
Selisistat + Alpelisib; first compound 40 µM
  relative viability: 0.842
Serdemetan + Pemetrexed; first compound 0.04 µM
  relative viability: 0.202
Serdemetan + Pemetrexed; first compound 0.1265 µM
  relative viability: 0.254
Serdemetan + Pemetrexed; first compound 0.4 µM
  relative viability: 0.226
Serdemetan + Pemetrexed; first compound 1.265 µM
  relative viability: 0.196
Serdemetan + Pemetrexed; first compound 4 µM
  relative viability: 0.257

## HCC-15
Selisistat; 0.4 µM
  relative viability: 1.08
Selisistat; 1.265 µM
  relative viability: 1.04
Selisistat; 12.65 µM
  relative viability: 1.02
Selisistat; 40 µM
  relative viability: 1.21
Serdemetan; 0.04 µM
  relative viability: 1.03
Serdemetan; 0.1265 µM
  relative viability: 0.999
Serdemetan; 0.4 µM
  relative viability: 0.94
Serdemetan; 1.265 µM
  relative viability: 0.807
Serdemetan; 4 µM
  relative viability: 0.712
Selisistat + Alpelisib; first compound 0.4 µM
  relative viability: 1.04
Selisistat + Alpelisib; first compound 1.265 µM
  relative viability: 0.9
Selisistat + Alpelisib; first compound 12.65 µM
  relative viability: 0.775
Selisistat + Alpelisib; first compound 40 µM
  relative viability: 0.878
Serdemetan + Pemetrexed; first compound 0.04 µM
  relative viability: 0.216
Serdemetan + Pemetrexed; first compound 0.1265 µM
  relative viability: 0.195
Serdemetan + Pemetrexed; first compound 0.4 µM
  relative viability: 0.215
Serdemetan + Pemetrexed; first compound 1.265 µM
  relative viability: 0.226
Serdemetan + Pemetrexed; first compound 4 µM
  relative viability: 0.213
